Results on eleven compounds are retold here after article PMC5521769, “Identification of odorant binding proteins and chemosensory proteins in Microplitis mediator as well as functional characterization of chemosensory protein 3” (PLoS ONE, 2017).

For orientation: Ki means the equilibrium dissociation constant of an inhibitor or competing ligand from its target.

Molecules are shown by their SMILES. Read-outs that look alike come from different tables or passages of the source.

Assay [1] deals with MmedOBPs and MmedCSPs (MmdeOBP1–10, MmedCSP1). Further details: method as in PMID 20388293. The conditions noted are these: MmdeOBP1–10 and MmedCSP1; ref [22], [23]; cited from earlier work.
Another assay deals with M. mediator. Further details: method as in PMID 20388293. As to conditions: ref [22], [23]; cited from earlier work.
Another assay addresses recombinant MmedCSP3 (Microplitis mediator, UniProt A0A219T7S8). Briefly: biochemical. The class given is binding. On the procedure: The bis-ANS and all compounds were dissolved in HPLC purity-grade methanol with a concentration of 1 mM.
The bound chemical was evaluated based on its fluorescence intensity with the assumption that the protein was 100% active with a stoichiometry of 1: 1 (protein: ligand) saturation. The binding curves were linearized using a Scatchard plot, and the dissociation constants of the competitors were calculated from the corresponding IC50 values based on the following equation: Ki = [IC50] / (1 + [bis-ANS] / Kbis-ANS), where [bis-ANS] is the free concentration of bis-ANS and Kbis-ANS is the dissociation constant of the complex protein / bis-ANS [33].

Where [2] appears, read: protein and bis-ANS at 2 μM, competitor 2–40 μM, 50 mM Tris-HCl pH 7.4, mean ± SD, text values are ranges over the named group, read-out: Ki, dissociation constant.

recombinant MmedCSP3, sequence (A0A219T7S8 entry or part of it): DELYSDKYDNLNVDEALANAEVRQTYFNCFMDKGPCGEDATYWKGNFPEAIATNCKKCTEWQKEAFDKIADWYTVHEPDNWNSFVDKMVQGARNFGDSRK

On to `CCC/C=C/C=O` [(E)-2-hexen-1-al], for which, in assay [1], the “binding affinity to MmedOBPs and MmedCSPs” value is given as “no any binding affinity”. In addition, the “electrophysiological and behavioral responses of M. mediator” value in the assay with M. mediator was “could elicit electrophysiological and behavioral responses”.

Turning to `CC/C=C\CCOC(C)=O` [(Z)-3-hexenyl acetate], the “binding affinity to MmedOBPs and MmedCSPs” value in assay [1] is on record as “no any binding affinity”. Moreover, the “electrophysiological and behavioral responses of M. mediator” value with M. mediator is “could elicit electrophysiological and behavioral responses”.

`CCCC(=O)OCC` [Ethyl butyrate]: the Ki at recombinant MmedCSP3 (setting [2]) was found to be 32.9 ± 7.43 µM.

As to `COC(=O)c1ccccc1O` [Methyl salicylate], the Ki at recombinant MmedCSP3 came to 39.22 ± 0.25 µM.

On to `CCCCCCCC/C=C\CCCCCCCC(=O)O` [Octadecenoic acid], for which the Ki on recombinant MmedCSP3 (setting [2]) was determined as 18.2 ± 1.74 µM.

`CCCCCCCCCCCCCCCC(=O)O` [Palmitic acid]: the Ki at recombinant MmedCSP3 amounted to 22.2 ± 1.82 µM.

Consider `C=C/C=C(\C)CC/C=C(\C)CCC=C(C)C` [TMTT, (3E, 7E)-4,8, 12-trimethyltrideca-1,3,7, 11-tetraene], for which the Ki on recombinant MmedCSP3 (setting [2]) came to 26.8 ± 1.27 µM.

With `O=S(=O)(O)c1cccc2c(-c3ccc(Nc4ccccc4)c4c(S(=O)(=O)O)cccc34)ccc(Nc3ccccc3)c12` [bis-ANS, 4, 4’-dianilino-1,1’-binaphthyl-5,5’-sulfonic acid, reference compound], the Kd on recombinant MmedCSP3 (2 μM protein titrated with bis-ANS 2–16 μM, 50 mM Tris-HCl pH 7.4, read-out: dissociation constant of the MmedCSP3 / bis-ANS complexes) stood at 1.75 ± 0.42 µM.

In the case of `CCCC/C=C\CCCCCCCCCCO` [cis-11-hexadecanol], on recombinant MmedCSP3 (setting [2]), the Ki was 17.6 ± 1.19 µM.

As to `CCCC/C=C\CCCCCCCCCC=O` [cis-11-hexadecenyl Aldehyde, cis-11-hexadecenyl aldehyde], the Ki on recombinant MmedCSP3 (setting [2]) is 17.2 ± 1.67 µM.

Take `CC/C=C/CCCCCCCCCCOC(C)=O` [trans-11-tetradecenyl acetate]: the Ki on recombinant MmedCSP3 (setting [2]) was determined as 18.8 ± 2.06 µM.
